Key:
HDAC = assay: In vitro fluorescent histone deacetylase assay (Biomol HDAC fluorescent activity kit, HeLa cell nuclear extract); assay type: biochemical; conditions: 100 μM compound; HeLa cell nuclear extract as source of HDAC activity; 50 μM substrate, 10 min at room temperature
Experimental: Histone deacetylase (HDAC) activity assays were performed using the HDAC fluorescent activity assay/drug discovery kit (Biomol Research Laboratories, Plymouth Meeting, Pa.) essentially according to the manufacturer's instructions. The included HeLa cell nuclear extract, which contains a mosaic of HDAC enzymes and other nuclear factors, was used as the source of HDAC activity. The final substrate concentration in the assay mixture was 50 μM. The reaction was allowed to proceed for 10 min at room temperature before stopping the reaction. Test compounds were prepared as 20 mM stock solutions in DMSO (Molecular Biology grade, Sigma-Aldrich Co., St. Louis, Mo.) and stored at −70° C. Serial dilutions of test compounds were prepared in assay buffer immediately prior to testing. DMSO was determined in a separate trial to have no significant effect on the activity of this assay at concentrations up to 5%; the final DMSO concentration in the wells was no more than 2% and therefore DMSO effects were safely neglected. Assays were performed in white polystyrene 96-well half-area assay plates (Corning, Corning, N.Y.) and measured on a Wallace 1420 fluorescent plate reader (Wallac Oy, Turku, Finland) with an excitation wavelength of 355 nm, an emission wavelength of 460 nm, and a 1 sec signal averaging time.

HCT116 cells = assay: Whole cell cytotoxicity assay: Sulforhodamine B; assay type: cell-based; conditions: Homo sapiens, HCT-116; 100 μM compound; 48 hours incubation with drug; Sulforhodamine B staining; read-out: % Inhibition of HCT116 cell growth @ 100 μM
Experimental: [The source words this procedure for another cell line and reports this cell line under the same test.] The following procedure can be found on the Developmental Therapeutics Program NCl/NIH web site at http://dtp.nci.nih.gov/brancehes/btb/ivclsp.html. • 1. Human tumor cell lines of HT29, A549 and MCF7 are grown in DMEM containing 10% fetal bovine serum and 2 mM L-glutamine. Cells are plated in a 96 well plate at a density of 5000 cells per well in 100 μL of growth medium and incubated at 37° C., 5% CO2, for 24 hours prior to the addition of experimental compounds. • 2. Experimental drugs are solubilized in DMSO for a final concentration of 20 mM immediately prior to use. Drugs are further diluted in growth media for a total of nine drug concentrations and a growth control. At the 24 hour time point, one plate of cells is fixed in situ with TCA as a measurement of the cell population at time zero, or the time of drug addition. • 3. The plates are further incubated with drug for an additional 48 hours. • 4. The cells are fixed in situ by gently aspirating off the culture media and then adding 50 μL of ice cold 10% TCA per well and incubated at 4° C. for 60 minutes. The plates are washed with tap water five times and allowed to air dry for 5 minute. • 5. 50 μL of a 0.4% (w/v) Sulforhodamine B solution in 1% (v/v) acetic acid is added per well and incubated for 30 minutes at room temperature. • 6. Following staining, plates are washed five times with 1% acetic acid to remove any unbound dye and then allowed to air dry for 5 minutes. • 7. Stain is solubilized with 100 μL of 10 mM Tris pH 10.5 per well and placed on an orbital rotator for 5 minutes. • 8. Absorbance is read at 570 nm.

SMILES | % Inhibition of HDAC @ 100 μM (HDAC) [%] | inhibition at 100 µM (HCT116 cells) [%]
CN1CCCC(n2c3c(c4ccccc42)CCN(c2ncc(C(=O)NO)cn2)C3)C1 (stereo not drawn) [Example 59, N-hydroxy-2-[9-(1-methylpiperidin-3-yl)-1,3,4,9-tetrahydro-2H-b-carbolin-2-yl]pyrimidine-5-carboxamide] | 97.3 | 97.5
O=C(NO)c1cnc(N2CCc3[nH]c4ccc(-c5cccc(CN6CCNCC6)c5)cc4c3C2)nc1 [Example 99, N-hydroxy-2-{8-[3-(piperazin-1-ylmethyl)phenyl]-1,3,4,5-tetrahydro-2H-pyrido[4,3-b]indol-2-yl}pyrimidine-5-carboxamide] | 99.9 | 93.8
CS(=O)(=O)Nc1ccc2[nH]c3c(c2c1)CN(c1ncc(C(=O)NO)cn1)CC3 [Example 78, N-hydroxy-2-(8-(N-methylsulfonamido)-1,3,4,5-tetrahydro-2H-pyrido[4,3-b]indol-2-yl)pyrimidine-5-carboxamide] | 99.9 | 85.1
CC(=O)N1CCN(Cc2cccc(-c3ccc4[nH]c5c(c4c3)CN(c3ncc(C(=O)NO)cn3)CC5)c2)CC1 [Example 101, N-hydroxy-2-{8-[3-((4-acetylpiperazin-1-yl)methyl)phenyl]-1,3,4,5-tetrahydro-2H-pyrido[4,3-b]indol-2-yl}pyrimidine-5-carboxamide] | 100 | 97.9
O=C(NO)c1cnc(N2CCc3[nH]c4ccc(-c5cccc(CN6CCOCC6)c5)cc4c3C2)nc1 [Example 90, N-hydroxy-2-{8-[3-(morpholin-4-ylmethyl)phenyl]-1,3,4,5-tetrahydro-2H-pyrido[4,3-b]indol-2-yl}pyrimidine-5-carboxamide] | 99.8 | 93.1
CN1CCN(Cc2ccc(-c3ccc4[nH]c5c(c4c3)CCN(c3ncc(C(=O)NO)cn3)C5)cc2)CC1 [Example 72, N-hydroxy-2-{6-[4-((4-methylpiperazin-1-yl)methyl)phenyl]-1,3,4,9-tetrahydro-2H-b-carbolin-2-yl}pyrimidine-5-carboxamide] | 99.8 | 95.6
CC(=O)n1c2c(c3ccccc31)CCN(c1ncc(C(=O)NO)cn1)C2 [Example 29, 2-(9-acetyl-1,3,4,9-tetrahydro-2H-b-carbolin-2-yl)-N-hydroxypyrimidine-5-carboxamide] | 99.8 | 98
O=C(CCc1cnc(N2CCc3c([nH]c4ccccc34)C2)nc1)NO [Example 21, N-hydroxy-3-[2-(1,3,4,9-tetrahydro-2H-b-carbolin-2-yl)pyrimidin-5-yl]propanamide] | 98.5 | 94
O=C(NO)c1cnc(N2CCc3c(n(CCN4CCOCC4)c4ccccc34)C2)nc1 [Example 25, N-hydroxy-2-[9-(2-morpholin-4-ylethyl)-1,3,4,9-tetrahydro-2H-b-carbolin-2-yl]pyrimidine-5-carboxamide] | 98 | 94
O=C(NO)c1cnc(N2CCc3[nH]c4ccc([N+](=O)[O-])cc4c3C2)nc1 [Example 37, N-hydroxy-2-(8-nitro-1,3,4,5-tetrahydro-2H-pyrido[4,3-b]indol-2-yl)pyrimidine-5-carboxamide] | 99.9 | 97.1
CN1CCN(Cc2ccc(-c3ccc4[nH]c5c(c4c3)CN(c3ncc(C(=O)NO)cn3)CC5)cc2)CC1 [Example 106, N-hydroxy-2-{8-[4-((4-methylpiperazin-1-yl)methyl)phenyl]-1,3,4,5-tetrahydro-2H-pyrido[4,3-b]indol-2-yl}pyrimidine-5-carboxamide] | 99.9 | 98.3
O=C(/C=C/c1ccc(N2CCc3c([nH]c4ccccc34)C2)cc1)NO [Example 22, (2E)-N-hydroxy-3-[4-(1,3,4,9-tetrahydro-2H-b-carbolin-2-yl)phenyl]acrylamide] | 98.2 | 98.2
CS(=O)(=O)NCc1cccc(-c2ccc3[nH]c4c(c3c2)CN(c2ncc(C(=O)NO)cn2)CC4)c1 [Example 83, N-hydroxy-2-{8-[3-(N-methylsulfonamidomethyl)phenyl]-1,3,4,5-tetrahydro-2H-pyrido[4,3-b]indol-2-yl}pyrimidine-5-carboxamide] | 99.9 | 94.7
O=C(NO)c1cnc(N2CCc3c([nH]c4ccc(OCc5ccccc5)cc34)C2)nc1 [Example 64, N-hydroxy-2-(6-benzyloxy-1,3,4,9-tetrahydro-2H-b-carbolin-2-yl)pyrimidine-5-carboxamide] | 99.9 | 98.7
O=C(NO)c1cnc(N2CCc3c([nH]c4cc(F)ccc34)C2)nc1 [Example 62, N-hydroxy-2-(7-fluoro-1,3,4,9-tetrahydro-2H-b-carbolin-2-yl)pyrimidine-5-carboxamide] | 99.9 | 96.2
O=C(NO)c1cnc(N2CCc3[nH]c4ccc(-c5cccc(CO)c5)cc4c3C2)nc1 [Example 43, N-hydroxy-2-{8-[3-(hydroxymethyl)phenyl]-1,3,4,5-tetrahydro-2H-pyrido[4,3-b]indol-2-yl}pyrimidine-5-carboxamide] | 100 | 98.7
CN1CCN(Cc2ccc(-c3ccc4[nH]c5c(c4c3)CN(c3ncc(C(=O)NO)cn3)CC5)s2)CC1 [Example 110, N-hydroxy-2-{8-[5-((4-methylpiperazin-1-yl)methyl)-thien-2-yl]-1,3,4,5-tetrahydro-2H-pyrido[4,3-b]indol-2-yl}pyrimidine-5-carboxamide] | 100 | 98.7
O=C(NO)c1cnc(N2CCc3[nH]c4ccc(Cl)cc4c3C2)nc1 [Example 14, 2-(8-chloro-1,3,4,5-tetrahydro-2H-pyrido[4,3-b]indol-2-yl)-N-hydroxypyrimidine-5-carboxamide] | 99.9 | 98.1
O=C(NO)c1cnc(N2CCc3[nH]c4ccc(-c5ccc[nH]5)cc4c3C2)nc1 [Example 53, N-hydroxy-2-{8-[1H-pyrrol-2-yl]-1,3,4,5-tetrahydro-2H-pyrido[4,3-b]indol-2-yl}pyrimidine-5-carboxamide] | 100 | 96.4
O=C(/C=C/c1ccc(CN2CCc3c([nH]c4ccccc34)C2)s1)NO [Example 3, (2E)-N-hydroxy-3-[5-(1,3,4,9-tetrahydro-2H-b-carbolin-2-ylmethyl)thien-2-yl]acrylamide] | 97.9 | 98.3
O=C(NO)c1cnc(N2CCc3c([nH]c4ccc(F)cc34)C2)nc1 [Example 63, N-hydroxy-2-(6-fluoro-1,3,4,9-tetrahydro-2H-b-carbolin-2-yl)pyrimidine-5-carboxamide] | 99.8 | 98.9
O=C(NO)c1cnc(N2CCc3[nH]c4ccc(-c5ccco5)cc4c3C2)nc1 [Example 46, N-hydroxy-2-{8-(fur-2-yl)-1,3,4,5-tetrahydro-2H-pyrido[4,3-b]indol-2-yl}pyrimidine-5-carboxamide] | 99.8 | 98.6
O=C(NO)c1cnc(N2CCc3[nH]c4ccc(-c5cccc(CN6CCCCC6)c5)cc4c3C2)nc1 [Example 91, N-hydroxy-2-{8-[3-(piperidin-1-ylmethyl)phenyl]-1,3,4,5-tetrahydro-2H-pyrido[4,3-b]indol-2-yl}pyrimidine-5-carboxamide] | 100 | 98.6
CN1CCN(Cc2ccc(-c3ccc4[nH]c5c(c4c3)CN(c3ncc(C(=O)NO)cn3)CC5)o2)CC1 [Example 108, N-hydroxy-2-{8-[5-((4-methylpiperazin-1-yl)methyl)-2-furyl]-1,3,4,5-tetrahydro-2H-pyrido[4,3-b]indol-2-yl}pyrimidine-5-carboxamide] | 100 | 99.1

Reference: US7772245B2, “Inhibitors of histone deacetylase” (Miikana Therapeutics, Inc., priority 2005, dated 2010)
